Laboratory results as given in PMC10386914 (Clinical Pharmacokinetics, 2023).

Experiment: Grade ≥3 toxicity
Type: in vivo, human
Conditions: standard dose; study period

Cc1ccc(Nc2nccc(N(C)c3ccc4c(C)n(C)nc4c3)n2)cc1S(N)(=O)=O [Pazopanib]
patients with grade ≥3 adverse events, wildtype patients: 29%
